Patent US5393883A, “Antiviral combinations and compounds therefor” (Burroughs Wellcome Co., priority 1988, dated 1995)
Like-named read-outs stand apart in the source and are kept apart here.

System: HSV-2
Assay: dye uptake method: prevention of HSV-2 cytopathic effect in Vero cells, acyclovir with ribonucleotide reductase inhibitor (Compound A)
Format: cell-based
Procedure: The ribonucleotide reductase inhibitors of the present invention were shown by use of the dye uptake method described by McLaren, Ellis and Hunter in Antivir. Res. 3, 223-234 (1983) to potentiate the in vitro antiviral effects of acyclovir. Vero cells (20,000 cells/well) were incubated in microtiter wells for 24 hours. Various concentrations of acyclovir and the ribonucleotide reductase inhibitors were added and the cells were infected with 30 infectious particles/well of HSV-1 or HSV-2. After 3 days incubation, the antiviral effects were assessed by determining the prevention of the cytopathic effects of the viruses. Examples of the synergistic antiherpes activity of 2-acetylpyridine (4,5-dihydro-5-thioxo-1,3,4-thiadiazol-2-yl)-hydrazone (Compound A) and acyclovir (ACV) are given below.

| Structure (SMILES) | IC50 Calculated (theoretical value for the additive combined effects of ACV and Compound A) (ACV alone) [µM] | IC50 (Human alphaherpesvirus 2, Vero, 72 h, read-out: IC50 Observed (concentration of ACV required to inhibit HSC2 replication by 50%)) [µM] | inhibition at 0.4 µM (Human alphaherpesvirus 2, Vero, 0.4 μM Compound A alone, read-out: % inhibition of virus replication by Compound A alone) [%] | inhibition at 0.9 µM (Human alphaherpesvirus 2, Vero, 0.9 μM Compound A alone, read-out: % inhibition of virus replication by Compound A alone) [%] | inhibition at 1.3 µM (Human alphaherpesvirus 2, Vero, 1.3 μM Compound A alone, read-out: % inhibition of virus replication by Compound A alone) [%] | IC50 (Human alphaherpesvirus 2, Vero, read-out: IC50 of Compound A alone (inhibition of virus replication)) [µM] |
| --- | --- | --- | --- | --- | --- | --- |
| Nc1nc2c(ncn2COCCO)c(=O)[nH]1 [ACV, 9-(2-hydroxyethoxymethyl)guanine, reference compound] | 5.7 | 5.77 |  |  |  |  |
| CC(=NNc1n[nH]c(=S)s1)c1ccccn1 [Compound A, 2-acetylpyridine (4,5-dihydro-5-thioxo-1,3,4-thiadiazol-2-yl)-hydrazone] |  |  | 0 | 0 | 21 | 1.6 |
